Experiments:
CHO cells [1] = assay: Intracellular sugar-nucleotide levels from CHO cells cultured with Uridine supplementation; type: cell-based, Chinese hamster; parameters: CMP-NeuAc, average increase in sugar-nucloetide above no supplemented cells / UDP-Gal, average increase in sugar-nucloetide above no supplemented cells / UDP-Glc, average increase in sugar-nucloetide above no supplemented cells / UDP-GlcNAc, average increase in sugar-nucloetide above no supplemented cells / GDP-Man, average increase in sugar-nucloetide above no supplemented cells: unit not given here; conditions: for CMP-NeuAc, average increase in sugar-nucloetide above no supplemented cells / GDP-Fuc, average increase in sugar-nucloetide above no supplemented cells / GDP-Man, average increase in sugar-nucloetide above no supplemented cells / UDP-Gal, average increase in sugar-nucloetide above no supplemented cells / UDP-Glc, average increase in sugar-nucloetide above no supplemented cells / UDP-GlcNAc, average increase in sugar-nucloetide above no supplemented cells: intracellular, CHO cells
Method: (§1) Chinese hamster ovary (CHO) cells were supplemented with the nucleoside uridine. Cells were harvested, and snap frozen, while culture supernatant was harvested and CTLA4Ig harvested by protein A purification for subsequent analysis. Cells were then subjected to nucleotide sugar extraction using standard methods. In short, this was performed with chloroform:methanol:water (2:4:1), the pellets discarded, and the resulting extraction dried down. The dried material was subsequently resuspended in 500 ul of 10% butanol in water and then extracted with 1 ml of 90% butanol in water. The butanol phase was discarded and the acqueous subjected to a second butanol extraction. The final aqueous phase was dried down and the sugar nucleotides further isolated by PGC chromatography eluting off with 25% acetonitrile (v/v) containing 50 mM triethylammonium acetate. For quantification, sugar-nucletides were resolved with RP chromatography.

CHO cells [2] = assay: LC-MS analysis of glycans from CTLA4Ig produced by CHO cells in the presence of elevated uridine; type: cell-based, Chinese hamster; conditions: CTLA4Ig from uridine-supplemented CHO cells, compared to the untreated control
Text: FIG. 1 is a depiction of the levels of glycans from recombinant fusion protein CTLA4-IgG produced in the presence of elevated uridine. Data are expressed as the ratio of the amount of the indicated glycan from control conditions to the amount of the same glycan produced in the presence of elevated uridine. Values are the average +/−SD of duplicate determinants. A value greater than one indicates the species is in greater abundance under the control conditions.
as §1, with “The butanol phase was discarded and the acqueous subjected to a second butanol extraction. The final aqueous phase was dried down and the sugar nucleotides further isolated by PGC chromatography eluting off with 25% acetonitrile (v/v) containing 50 mM triethylammonium acetate.” left out
Protein product was deglycosylated with PNGase F for 18 hours and the resulting glycans isolated with PGC chromatography. […] Resulting MS peak areas were quantified and for each glycan the ratio of the control vs. the uridine treated samples was determined.

SMILES: O=c1ccn([C@@H]2O[C@H](CO)[C@@H](O)[C@H]2O)c(=O)[nH]1 [Uridine, uridine]
- levels of the uridine sugars including UDP-Gal and UDP-GlcNAc (CHO cells [1]; CHO cells supplemented with uridine): increased significantly
- CMP-NeuAc, average increase in sugar-nucloetide above no supplemented cells (CHO cells [1]; Uridine 2 x): 32.13
- GDP-Fuc, average increase in sugar-nucloetide above no supplemented cells (CHO cells [1]; Uridine 2 x): 6.5
- GDP-Man, average increase in sugar-nucloetide above no supplemented cells (CHO cells [1]; Uridine 2 x): 6.06
- UDP-Gal, average increase in sugar-nucloetide above no supplemented cells (CHO cells [1]; Uridine 2 x): 168.97
- UDP-Glc, average increase in sugar-nucloetide above no supplemented cells (CHO cells [1]; Uridine 2 x): 409.16
- UDP-GlcNAc, average increase in sugar-nucloetide above no supplemented cells (CHO cells [1]; Uridine 2 x): 402.7
- CMP-NeuAc, average increase in sugar-nucloetide above no supplemented cells (CHO cells [1]; Uridine 10 x): 50.52
- GDP-Fuc, average increase in sugar-nucloetide above no supplemented cells (CHO cells [1]; Uridine 10 x): 8.98
- GDP-Man, average increase in sugar-nucloetide above no supplemented cells (CHO cells [1]; Uridine 10 x): 12.45
- UDP-Gal, average increase in sugar-nucloetide above no supplemented cells (CHO cells [1]; Uridine 10 x): 389.06
- UDP-Glc, average increase in sugar-nucloetide above no supplemented cells (CHO cells [1]; Uridine 10 x): 1261.96
- UDP-GlcNAc, average increase in sugar-nucloetide above no supplemented cells (CHO cells [1]; Uridine 10 x): 2280.49
- level of the monogalactosylated species on the protein product (CHO cells [2]): rises

From patent US20120329709A1, “PRODUCTION OF GLYCOPROTEINS” (priority 2009, published 2012)
